37 compounds from patent US20080125469A1, “Thiadiazole compounds and methods of use thereof” (Wyeth, priority 2006, published 2008) can be followed below.

pIC50: −log10 of the molar value.

The first test concerns the target T1, purified recombinant human Aggrecanase-2 (Agg2-Phe628) (Homo sapiens, UniProt Q9UNA0).
T1 construct: (Agg2-Phe628) (MW=41,737), which is a truncated form of full-length human aggrecanase-2; made in house; host or cells: CHO cells
T1 sequence (Q9UNA0 262-628 limits assumed): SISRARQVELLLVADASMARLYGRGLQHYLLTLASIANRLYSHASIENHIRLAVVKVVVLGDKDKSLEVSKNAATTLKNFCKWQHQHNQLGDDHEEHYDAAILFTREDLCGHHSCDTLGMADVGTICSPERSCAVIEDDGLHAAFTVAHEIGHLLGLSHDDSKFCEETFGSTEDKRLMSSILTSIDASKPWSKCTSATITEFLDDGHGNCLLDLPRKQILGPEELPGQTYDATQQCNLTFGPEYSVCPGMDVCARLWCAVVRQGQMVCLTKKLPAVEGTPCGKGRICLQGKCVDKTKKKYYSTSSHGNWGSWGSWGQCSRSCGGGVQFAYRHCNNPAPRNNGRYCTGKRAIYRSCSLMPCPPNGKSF
Kind of test: Aggrecanase 2 continuous in vitro fluorescence assay. The note with it: Agg2-Phe628 0.5 μg/ml, substrate 25 μM, 30° C.; read-out: IC50. The format is biochemical.
Procedure: A continuous vitro fluorescence assay was employed, wherein the enzyme used in the assay was a purified recombinant human Aggrecanase-2 (Agg2-Phe628) (MW=41,737), which is a truncated form of full-length human aggrecanase-2 that was expressed in CHO cells and purified prior to use. The final concentration of Agg2-Phe628 was 0.5 μg/ml. The buffer used in this assay was 50 mM HEPES, pH 7.5, 100 mM NaCl, 5 mM CaCl2, 0.1% CHAPS, 5% glycerol. The substrate used in the assay was a synthetic peptide having the sequence ABz-[sequence]-Dap(Dnp)-KK—NH2 (>95% pure by HPLC, AnaSpec, Inc.), wherein Abz refers to ortho-aminobenzyl, a fluorescent group which is quenched by energy transfer to a 2,4-dinitrophenyl group. The final concentration of substrate in the assay was 25 μM and was spectrophotometrically determined using the extinction coefficient at 354 nm of 18,172 M^−1cm^−1. The Vmax and Km for this enzyme/substrate reaction were determined to be insensitive to DMSO up to at least 10% (v/v).
The total reaction volume was 100 μl. The buffer and enzyme were added first followed by addition of 10× inhibitor from the dilution plate. Separate enzyme and buffer samples were included in order to obtain the maximal rate of substrate cleavage. The reaction was allowed to stand at 30° C. for 15 minutes, then substrate was added, the resultant solution was mixed. The resultant reaction was allowed to progress, with monitoring, for 40 minutes at 30° C. in kinetic mode using λex: 340 nm and λem: 420 (GeminiXS Molecular Devices).
The fluorescence intensity is linear during the time of data collection. The slope of the line (Vmax/sec) represents the initial reaction rate, ν. The maximal rate of cleavage of substrate was determined in the absence of inhibitor. The percent inhibition of activity in the presence of inhibitor was calculated using the following equation:
% inhibition=(1−ν(RFU/sec))/Maximal Rate(RFU/sec))*100
The IC50 was obtained by fitting the initial rate, ν or % inhibition at each concentration of inhibitor to the following equation:
This model describes a sigmoidal curve with an adjustable baseline, wherein:
y is the % inhibition or initial rate of reaction;
C is the concentration of inhibitor under test;
a is the limiting response as C approaches zero. As C increases without bound y tends toward its lower limit, d;
y is halfway between the lower and upper asymptotes when C=IC50; and
n is the Hill coefficient. The sign of n is positive when the response increases with increasing dose and is negative when the response decreases with increasing dose (inhibition).
In the case of “1-benzyl-5′-(4-methoxyphenyl)-3′H-spiro[indole-3,2′-[1,3,4]thiadiazol]-2(1H)-one [Compound 10]”, the pIC50 is 6.06.

In the case of “5-chloro-5′-(4-methoxyphenyl)-3′H-spiro[indole-3,2′-[1,3,4]thiadiazol]-2(1H)-one [Compound 13]”, the pIC50 was 5.71.

As for “5′-(4-methoxyphenyl)-1-[3-(trifluoromethyl)phenyl]-3′H-spiro[indole-3,2′-[1,3,4]thiadiazol]-2(1H)-one [Compound 8]”, the pIC50 is 5.93.

In the case of `COc1ccc(C2=NNC3(S2)C(=O)Nc2c(C)cc(C)cc23)cc1` (stereo not shown) [Compound 1, 5′-(4-methoxyphenyl)-5,7-dimethyl-3′H-spiro[indole-3,2′-[1,3,4]thiadiazol]-2(1H)-one], the pIC50 was 5.51.

Take `COc1ccc(C2=NNC3(S2)C(=O)N(C)c2ccccc23)cc1` (stereo not shown) [Compound 2, 5′-(4-methoxyphenyl)-1-methyl-3′H-spiro[indole-3,2′-[1,3,4]thiadiazol]-2(1H)-one]: the pIC50 is less than 5.15.

Consider `COc1ccc(C2=NNC3(S2)C(=O)Nc2ccccc23)cc1` (stereo not shown) [Compound 3, 5′-(4-methoxyphenyl)-3′H-spiro[indole-3,2′-[1,3,4]thiadiazol]-2(1H)-one], for which the pIC50 is 4.87.

On to `COc1ccc(C2=NNC3(S2)C(=O)Nc2ccc(Br)cc23)cc1` (stereo not shown) [Compound 4, 5-bromo-5′-(4-methoxyphenyl)-3′H-spiro[indole-3,2′-[1,3,4]thiadiazol]-2(1H)-one], for which the pIC50 was 5.62.

With `COc1ccc(C2=NNC3(S2)C(=O)Nc2ccc(C)cc23)cc1` (stereo not shown) [Compound 5, 5′-(4-methoxyphenyl)-5-methyl-3′H-spiro[indole-3,2′-[1,3,4]thiadiazol]-2(1H)-one], the pIC50 was 5.60.

For `COc1ccc(C2=NNC3(S2)C(=O)Nc2ccc(OC)cc23)cc1` (stereo not shown) [Compound 6, 5-methoxy-5′-(4-methoxyphenyl)-3′H-spiro[indole-3,2′-[1,3,4]thiadiazol]-2(1H)-one], the pIC50 is less than 5.60.

Regarding `C#CCN1C(=O)C2(NN=C(c3ccc(OC)cc3)S2)c2ccccc21` (stereo not shown) [Compound 7, 5′-(4-methoxyphenyl)-1-prop-2-yn-1-yl-3′H-spiro[indole-3,2′-[1,3,4]thiadiazol]-2(1H)-one], the pIC50 was 5.61.

For the compound `COc1ccc(C2=NNC3(S2)C(=O)Nc2cc(Cl)ccc23)cc1` (stereo not shown) [Compound 12, 6-chloro-5′-(4-methoxyphenyl)-3′H-spiro[indole-3,2′-[1,3,4]thiadiazol]-2(1H)-one], the negative logarithm of the IC50 (pIC50) is 5.93.

In the case of `CCCc1ccc2c(c1)NC(=O)C21NN=C(c2ccc(OC)cc2)S1` (stereo not shown) [Compound 15, 5′-(4-methoxyphenyl)-6-propyl-3′H-spiro[indole-3,2′-[1,3,4]thiadiazol]-2(1H)-one], the pIC50 was 6.11.

For the compound `COc1ccc(C2=NNC3(S2)C(=O)Nc2ccc([N+](=O)[O-])cc23)cc1` (stereo not shown) [Compound 16, 5′-(4-methoxyphenyl)-5-nitro-3′H-spiro[indole-3,2′-[1,3,4]thiadiazol]-2(1H)-one], the pIC50 is 5.35.

`COc1ccc(C2=NNC3(S2)C(=O)Nc2c3ccc(Cl)c2C)cc1` (stereo not shown) [Compound 17, 6-chloro-5′-(4-methoxyphenyl)-7-methyl-3′H-spiro[indole-3,2′-[1,3,4]thiadiazol]-2(1H)-one]: the pIC50 is 5.98.

Take `COc1ccc(C2=NNC3(S2)C(=O)Nc2c(C)cccc23)cc1` (stereo not shown) [Compound 18, 5′-(4-methoxyphenyl)-7-methyl-3′H-spiro[indole-3,2′-[1,3,4]thiadiazol]-2(1H)-one]: the pIC50 was 5.43.

Take `COc1ccc(C2=NNC3(S2)C(=O)Nc2cc(C)ccc23)cc1` (stereo not shown) [Compound 19, 5′-(4-methoxyphenyl)-6-methyl-3′H-spiro[indole-3,2′-[1,3,4]thiadiazol]-2(1H)-one]: the pIC50 is 5.85.

Turning to `COc1ccc(C2=NNC3(S2)C(=O)Nc2c3ccc(C)c2OC)cc1` (stereo not shown) [Compound 20, 7-methoxy-5′-(4-methoxyphenyl)-6-methyl-3′H-spiro[indole-3,2′-[1,3,4]thiadiazol]-2(1H)-one], the negative logarithm of the IC50 (pIC50) was 5.23.

In the case of `CCN1C(=O)C2(NN=C(c3ccc(OC)cc3)S2)c2cc(F)c(N3CCN(C)CC3)cc21` (stereo not shown) [Compound 21, 1-ethyl-5-fluoro-5′-(4-methoxyphenyl)-6-(4-methylpiperazin-1-yl)-3′H-spiro[indole-3,2′-[1,3,4]thiadiazol]-2(1H)-one], the pIC50 is 5.27.

In the case of `COc1ccc(C2=NNC3(S2)C(=O)N(c2ccccc2C)c2ccc(C)cc23)cc1` (stereo not shown) [Compound 23, 5′-(4-methoxyphenyl)-5-methyl-1-(2-methylphenyl)-3′H-spiro[indole-3,2′-[1,3,4]thiadiazol]-2(1H)-one], the pIC50 was 6.05.

With `COc1ccc(C2=NNC3(S2)C(=O)N(c2ccc(Cl)cc2)c2ccc(C)cc23)cc1` (stereo not shown) [Compound 25, 1-(4-chlorophenyl)-5′-(4-methoxyphenyl)-5-methyl-3′H-spiro[indole-3,2′-[1,3,4]thiadiazol]-2(1H)-one], the pIC50 was 5.83.

With `COc1ccc(C2=NNC3(S2)C(=O)N(c2ccc(Cl)c(Cl)c2)c2ccc(C)cc23)cc1` (stereo not shown) [Compound 26, 1-(3,4-dichlorophenyl)-5′-(4-methoxyphenyl)-5-methyl-3′H-spiro[indole-3,2′-[1,3,4]thiadiazol]-2(1H)-one], the pIC50 was 5.90.

As for `COc1ccc(C2=NNC3(S2)C(=O)N(c2cccc([N+](=O)[O-])c2)c2ccc(C)cc23)cc1` (stereo not shown) [Compound 27, 5′-(4-methoxyphenyl)-5-methyl-1-(3-nitrophenyl)-3′H-spiro[indole-3,2′-[1,3,4]thiadiazol]-2(1H)-one], the pIC50 was 6.00.

Take `CCCc1ccc2c(c1)N(Cc1ccccc1)C(=O)C21NN=C(c2ccc(OC)cc2)S1` (stereo not shown) [Compound 28, 1-benzyl-5′-(4-methoxyphenyl)-6-propyl-3′H-spiro[indole-3,2′-[1,3,4]thiadiazol]-2(1H)-one]: the negative-log IC50 (pIC50) is 6.02.

As for `CCc1ccc2c(c1)C1(NN=C(c3ccc(OC)cc3)S1)C(=O)N2` (stereo not shown) [Compound 29, 5-ethyl-5′-(4-methoxyphenyl)-3′H-spiro[indole-3,2′-[1,3,4]thiadiazol]-2(1H)-one], the pIC50 was 5.87.

On to `CCc1ccc2c(c1)C1(NN=C(c3cccc(OC)c3)S1)C(=O)N2` (stereo not shown) [Compound 30, 5-ethyl-5′-(3-methoxyphenyl)-3′H-spiro[indole-3,2′-[1,3,4]thiadiazol]-2(1H)-one], for which the pIC50 is 5.23.

As to `O=C1Nc2ccc(OC(F)(F)F)cc2C12NN=C(c1ccccc1)S2` (stereo not shown) [Compound 31, 5′-phenyl-5-(trifluoromethoxy)-3′H-spiro[indole-3,2′-[1,3,4]thiadiazol]-2(1H)-one], the pIC50 is 5.14.

Take `Cc1ccc(C2=NNC3(S2)C(=O)N(c2ccccc2C)c2ccc(C)cc23)cc1` (stereo not shown) [Compound 32, 5-methyl-1-(2-methylphenyl)-5′-(4-methylphenyl)-3′H-spiro[indole-3,2′-[1,3,4]thiadiazol]-2(1H)-one]: the pIC50 was 5.91.

As for `Cc1ccc(C2=NNC3(S2)C(=O)N(Cc2ccccc2)c2ccc(C)cc23)cc1` (stereo not shown) [Compound 33, 1-benzyl-5-methyl-5′-(4-methylphenyl)-3′H-spiro[indole-3,2′-[1,3,4]thiadiazol]-2(1H)-one], the pIC50 was 6.21.

For `Cc1cc(C)c2c(c1)C1(NN=C(c3ccccc3)S1)C(=O)N2` (stereo not shown) [Compound 34, 5,7-dimethyl-5′-phenyl-3′H-spiro[indole-3,2′-[1,3,4]thiadiazol]-2(1H)-one], the pIC50 was 5.33.

Take `CCCc1ccc2c(c1)NC(=O)C21NN=C(c2ccc(C)cc2)S1` (stereo not shown) [Compound 37, 5′-(4-methylphenyl)-6-propyl-3′H-spiro[indole-3,2′-[1,3,4]thiadiazol]-2(1H)-one]: the pIC50 is 5.86.

Take `O=C1N(c2ccccc2)c2ccccc2C12NN=C(c1ccccc1)S2` (stereo not shown) [Compound 38, 1,5′-diphenyl-3′H-spiro[indole-3,2′-[1,3,4]thiadiazol]-2(1H)-one]: the pIC50 was 5.58.

Consider `O=C1Nc2cc(F)c(F)cc2C12NN=C(c1ccccc1)S2` (stereo not shown) [Compound 39, 5,6-difluoro-5′-phenyl-3′H-spiro[indole-3,2′-[1,3,4]thiadiazol]-2(1H)-one], for which the pIC50 was 4.84.

The same test, now with this note: inhibitor concentration not given.
Regarding “1-(4-chlorobenzoyl)-5′-(4-methoxyphenyl)-3′H-spiro[indole-3,2′-[1,3,4]thiadiazol]-2(1H)-one [Compound 36]”, the “% Inhibition” value is given as 48%.

For “1-[2-(dimethylamino)ethyl]-5′-(4-methoxyphenyl)-3′H-spiro[indole-3,2′-[1,3,4]thiadiazol]-2(1H)-one [Compound 11]”, the “% Inhibition” value is reported as 30%.

As to `COc1ccc(C2=NNC3(S2)C(=O)Nc2cccc(N4CCN(Cc5ccccc5)CC4)c23)cc1` (stereo not shown) [Compound 14, 4-(4-benzylpiperazin-1-yl)-5′-(4-methoxyphenyl)-3′H-spiro[indole-3,2′-[1,3,4]thiadiazol]-2(1H)-one], the “% Inhibition” value came to 50%.

On to `COc1ccc(C2=NNC3(S2)C(=O)N(c2ccc(C)cc2)c2ccc(C)cc23)cc1` (stereo not shown) [Compound 24, 5′-(4-methoxyphenyl)-5-methyl-1-(4-methylphenyl)-3′H-spiro[indole-3,2′-[1,3,4]thiadiazol]-2(1H)-one], for which the “% Inhibition” value is 39%.

`COc1ccc2c(c1)C1(NN=C(c3ccccc3)S1)C(=O)N2` (stereo not shown) [Compound 35, 5-methoxy-5′-phenyl-3′H-spiro[indole-3,2′-[1,3,4]thiadiazol]-2(1H)-one]: the “% Inhibition” value was 41%.
